Test results taken from US10947202B2, “Sodium ion channel inhibitors and pharmaceutically acceptable salts and polymorphs thereof and uses thereof” (SHANGHAI HAIYAN PHARMACEUTICAL TECHNOLOGY CO., LTD., priority 2017, dated 2021).

Tests used:
[1] = target: hNav1.7 (Homo sapiens, UniProt Q15858); assay: Manual patch clamp experiment of hNav1.7 channel (CHO-hNav1.7 stable cell line); assay type: cell-based
Excerpt: Patch voltage clamp electrophysiology allows for the direct measurement and quantification of current block of voltage-gated sodium channels (NaV's), and allows the determination of the time and voltage-dependence of block which has been interpreted as differential binding to the resting, open and inactivated states of the sodium channel to reflect the compound's inhibitory or activating effects (Hille, B., Journal of General Physiology (1977), 69: 497-515).
Representative compounds of the present disclosure were performed using a manual patch clamp experiment and the purpose of this study was to test the effect of compounds on this ion channel current on a stable cell line transfected with a specific ion channel using a manual patch clamp method, the used stable cell lines CHO-hNav1.7 and HEK-hNav1.5 were from Genionics and WuXi Apptec (Shanghai) respectively.
Manual patch clamp experimental program is as follows:
(1) Preparation of solutions and compounds: The whole cell patch clamp technique was used to record hNav1.7 and hNav1.5 currents. In the experiment, the composition of extracellular fluid (mM): HEPES: 5, NaCl: 40, KCl: CaCl2:1, MgCl2:1, CdCl2:0.1, TEA-Cl: 20. The pH was adjusted to 7.3 with NaOH and the osmotic pressure was adjusted to 310-320 mOsm with sucrose, filtered and stored at 4° C. The composition of the intracellular fluid (mM): HEPES: 10, NaCl: 10, CsOH: 5, CsF: 140, EGTA: 1. The pH was adjusted to 7.3 with CsOH and the osmotic pressure was adjusted to 280-290 mOsm with sucrose, filtered and stored at −20° C.
The positive control and the test compound were firstly dissolved in 100% DMSO (Sigma-Aldrich, D2650), configured as stock solution at a concentration (100 nM, 1000 nM).) The above stock solution was serially diluted with DMSO prior to the experiment, the solution was further diluted with extracellular solution to obtain the desired concentration of the test solution.
(2) Manual Patch Clamp Experiment: The cell suspension was added to a 35 mm petri dish and placed on an inverted microscope stage, the cells were perfused with an extracellular fluid and the flow rate was 1-2 mL/min after cell adherence. The glass microelectrode was pulled in two steps by a microelectrode puller with an inlet water resistance of 2-5 MΩ. A/D-D/A digital-analog conversion was performed by Digidata 1440 (Molecular Devices) and pCLAMP software (version 10.2, Molecular Devices) for stimulation and signal acquisition; the signal was amplified by patch clamp amplifier (Multiclamp 700B, Molecular Devices), filtering is 4 KHz.
Two different voltage stimulation procedures were used in the hNav1.7 and hNav1.5 manual patch clamp experiments.
One is the inactivation stimulation program, the clamp potential is set at V1/2 of the corresponding channel, ie about 50% of the channels are inactivated, then the voltage is applied to −120 mV for 50 ms, then depolarized to −10 mV for 20 ms leading to sodium current, and finally back to the clamp potential. This stimulation program can also be called channel state-dependent voltage stimulation program.
The other is the non-inactivation stimulation program, the clamp potential is maintained at −120 mV, voltage stimulation is given to −10 mV for 20 ms leading to sodium current, and finally back to the clamp potential. That is all channels have not experienced inactivation status, but activate directly from the resting state under the conditions of the stimulation program.
The time intervals of these two voltage stimulation program were 10 s. The inhibitory effect of the compound was calculated by the change of the current before and after dosing, the IC50 value was fitted by the Hill equation. […] The results are shown in Table 33 and Table 34, respectively.

[2] = target: Nav1.2 (Homo sapiens, UniProt Q99250); assay: Selectivity for other ion channels: Nav1.2; assay type: cell-based
Chain of Nav1.2 (Q99250 whole entry): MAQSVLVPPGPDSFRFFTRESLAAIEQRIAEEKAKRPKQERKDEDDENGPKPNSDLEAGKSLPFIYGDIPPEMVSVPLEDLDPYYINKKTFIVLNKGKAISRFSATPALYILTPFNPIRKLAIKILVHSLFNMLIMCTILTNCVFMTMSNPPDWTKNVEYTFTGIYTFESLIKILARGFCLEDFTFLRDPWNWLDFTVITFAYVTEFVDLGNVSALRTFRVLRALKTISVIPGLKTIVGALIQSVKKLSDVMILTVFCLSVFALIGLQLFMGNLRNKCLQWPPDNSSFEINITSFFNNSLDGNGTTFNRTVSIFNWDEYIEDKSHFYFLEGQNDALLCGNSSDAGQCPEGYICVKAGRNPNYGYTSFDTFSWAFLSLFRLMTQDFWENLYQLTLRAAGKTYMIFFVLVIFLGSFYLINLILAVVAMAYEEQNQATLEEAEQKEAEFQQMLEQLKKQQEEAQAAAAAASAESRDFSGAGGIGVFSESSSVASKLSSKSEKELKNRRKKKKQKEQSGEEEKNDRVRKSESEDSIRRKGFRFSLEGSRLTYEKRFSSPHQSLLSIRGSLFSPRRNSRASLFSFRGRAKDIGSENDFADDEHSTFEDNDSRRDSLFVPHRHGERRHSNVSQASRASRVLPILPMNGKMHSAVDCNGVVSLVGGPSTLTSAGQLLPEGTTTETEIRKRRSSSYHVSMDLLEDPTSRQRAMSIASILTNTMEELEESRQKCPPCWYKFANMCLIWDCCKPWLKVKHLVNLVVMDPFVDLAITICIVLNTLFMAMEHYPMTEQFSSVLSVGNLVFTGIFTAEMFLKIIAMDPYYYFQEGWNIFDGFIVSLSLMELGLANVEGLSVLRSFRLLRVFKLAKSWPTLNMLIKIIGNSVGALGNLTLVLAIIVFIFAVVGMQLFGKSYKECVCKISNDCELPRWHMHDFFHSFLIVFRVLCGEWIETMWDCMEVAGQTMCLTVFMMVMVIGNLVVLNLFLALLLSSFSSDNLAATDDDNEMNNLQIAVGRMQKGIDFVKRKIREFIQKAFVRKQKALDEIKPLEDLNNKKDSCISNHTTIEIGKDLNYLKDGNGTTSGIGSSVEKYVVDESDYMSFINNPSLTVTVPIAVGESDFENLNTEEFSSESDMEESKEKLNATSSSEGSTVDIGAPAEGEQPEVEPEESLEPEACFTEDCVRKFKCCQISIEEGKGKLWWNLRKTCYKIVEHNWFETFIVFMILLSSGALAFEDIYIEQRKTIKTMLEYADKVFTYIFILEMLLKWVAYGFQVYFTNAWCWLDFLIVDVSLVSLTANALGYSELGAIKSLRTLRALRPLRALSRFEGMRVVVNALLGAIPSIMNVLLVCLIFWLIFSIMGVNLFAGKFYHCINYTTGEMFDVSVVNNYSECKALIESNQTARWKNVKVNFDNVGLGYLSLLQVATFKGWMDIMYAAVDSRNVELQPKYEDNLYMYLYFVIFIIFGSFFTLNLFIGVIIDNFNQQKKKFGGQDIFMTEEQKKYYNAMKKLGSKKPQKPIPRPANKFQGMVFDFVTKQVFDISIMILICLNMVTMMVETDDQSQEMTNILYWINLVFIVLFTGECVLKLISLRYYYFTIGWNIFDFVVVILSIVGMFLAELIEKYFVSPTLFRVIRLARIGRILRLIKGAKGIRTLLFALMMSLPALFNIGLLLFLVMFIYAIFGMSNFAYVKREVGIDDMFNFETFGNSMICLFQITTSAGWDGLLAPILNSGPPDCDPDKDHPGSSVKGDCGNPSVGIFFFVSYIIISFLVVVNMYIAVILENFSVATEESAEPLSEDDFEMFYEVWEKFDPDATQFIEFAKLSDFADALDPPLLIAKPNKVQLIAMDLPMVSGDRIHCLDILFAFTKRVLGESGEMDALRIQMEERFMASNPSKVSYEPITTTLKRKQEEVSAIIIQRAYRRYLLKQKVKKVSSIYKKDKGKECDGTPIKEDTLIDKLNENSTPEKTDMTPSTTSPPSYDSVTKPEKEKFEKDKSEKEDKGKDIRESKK

Chain of hNav1.7 (Q15858 whole entry): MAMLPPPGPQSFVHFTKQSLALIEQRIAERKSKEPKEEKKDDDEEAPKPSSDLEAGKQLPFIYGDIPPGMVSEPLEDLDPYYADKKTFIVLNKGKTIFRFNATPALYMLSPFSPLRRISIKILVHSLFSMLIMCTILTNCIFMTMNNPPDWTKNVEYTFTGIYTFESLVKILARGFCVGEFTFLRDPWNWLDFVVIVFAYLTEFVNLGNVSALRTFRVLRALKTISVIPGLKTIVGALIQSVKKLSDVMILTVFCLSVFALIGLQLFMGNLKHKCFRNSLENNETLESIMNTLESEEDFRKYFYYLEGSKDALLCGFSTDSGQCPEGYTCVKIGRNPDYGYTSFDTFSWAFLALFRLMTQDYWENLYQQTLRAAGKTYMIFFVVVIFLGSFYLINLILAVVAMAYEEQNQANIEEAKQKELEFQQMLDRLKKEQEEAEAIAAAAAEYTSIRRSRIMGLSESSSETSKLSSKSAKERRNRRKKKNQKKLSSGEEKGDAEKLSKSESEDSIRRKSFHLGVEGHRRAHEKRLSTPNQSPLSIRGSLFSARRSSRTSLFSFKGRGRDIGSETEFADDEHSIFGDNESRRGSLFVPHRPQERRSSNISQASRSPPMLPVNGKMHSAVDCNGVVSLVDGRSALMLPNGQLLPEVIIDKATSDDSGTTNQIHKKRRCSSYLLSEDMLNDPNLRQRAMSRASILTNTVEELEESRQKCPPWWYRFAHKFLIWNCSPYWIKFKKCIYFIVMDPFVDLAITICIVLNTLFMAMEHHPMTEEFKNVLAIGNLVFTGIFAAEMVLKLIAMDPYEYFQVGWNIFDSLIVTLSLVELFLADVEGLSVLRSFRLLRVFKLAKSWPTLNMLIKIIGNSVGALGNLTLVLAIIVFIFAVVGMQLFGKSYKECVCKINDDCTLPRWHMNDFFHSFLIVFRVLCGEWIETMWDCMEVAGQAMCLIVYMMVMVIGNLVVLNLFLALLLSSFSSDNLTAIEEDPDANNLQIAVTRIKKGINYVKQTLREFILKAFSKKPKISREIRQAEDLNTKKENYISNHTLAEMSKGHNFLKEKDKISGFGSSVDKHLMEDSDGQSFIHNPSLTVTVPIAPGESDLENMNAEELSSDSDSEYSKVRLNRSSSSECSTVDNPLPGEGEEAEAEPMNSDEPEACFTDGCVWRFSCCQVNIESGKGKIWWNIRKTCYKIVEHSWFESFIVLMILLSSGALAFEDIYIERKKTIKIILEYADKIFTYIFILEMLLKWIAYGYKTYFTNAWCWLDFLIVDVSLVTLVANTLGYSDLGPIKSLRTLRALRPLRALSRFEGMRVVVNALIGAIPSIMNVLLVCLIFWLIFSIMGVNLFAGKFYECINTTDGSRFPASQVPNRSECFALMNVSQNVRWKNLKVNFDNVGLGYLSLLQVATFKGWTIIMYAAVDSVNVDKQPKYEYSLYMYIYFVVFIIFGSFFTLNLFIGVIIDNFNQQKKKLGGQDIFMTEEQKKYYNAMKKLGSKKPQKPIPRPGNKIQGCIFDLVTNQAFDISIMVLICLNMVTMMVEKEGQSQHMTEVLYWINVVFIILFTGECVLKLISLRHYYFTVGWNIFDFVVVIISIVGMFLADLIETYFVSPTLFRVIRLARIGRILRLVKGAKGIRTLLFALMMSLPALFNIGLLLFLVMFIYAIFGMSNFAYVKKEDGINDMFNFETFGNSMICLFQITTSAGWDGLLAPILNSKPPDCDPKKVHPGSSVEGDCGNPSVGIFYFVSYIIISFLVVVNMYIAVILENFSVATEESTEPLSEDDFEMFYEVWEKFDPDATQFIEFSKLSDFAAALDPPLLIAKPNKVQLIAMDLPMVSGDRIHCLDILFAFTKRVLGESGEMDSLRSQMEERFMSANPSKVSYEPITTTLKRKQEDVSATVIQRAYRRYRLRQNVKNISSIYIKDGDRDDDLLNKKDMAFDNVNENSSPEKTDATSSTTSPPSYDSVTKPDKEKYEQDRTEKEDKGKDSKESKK

For `Cc1cc(N2CCN(Cc3cc(F)c(C(=O)NS(=O)(=O)C4CC4)cc3Cl)CC2)ccc1Cl` [the free base of formula X compound, 5-chloro-4-((4-(4-chloro-3-methylphenyl)piperazin-1-yl)methyl)-N-(cyclopropylsulfonyl)-2-fluorobenzamide], the “inhibitory activity against Nav1.7” value [1] was “higher inhibitory activity”, the inhibition at 0.1 µM ([1]; read-out: Inhibition of Nav1.7, 100 nM(%)) was 86.9% and the inhibition at 1 µM ([1]; read-out: Inhibition of Nav1.7, 1000 nM(%)) was 97.7%. The IC50 [2] was 9600 nM.
